According to PMC4265264 (Hepatology (Baltimore, Md.), 2014):

Tests used:
[1] = test system: calcineurin/NF-AT pathway; test: Calcineurin/NF-AT reporter assay in Jurkat cells; assay type: cell-based, human; conditions: pNF-AT-luc, PMA and ionomycin
HCVpp = test: HCV pseudoparticle; assay type: cell-based, hepatitis C virus; conditions: Huh-7.5.1 cells pretreated 1 h, HCVpp 4 h, read at 72 h
HBV [2] = test: HBV replication in HepAD38 cells, southern blot of core particle HBV DNA; assay type: cell-based, hepatitis B virus; conditions: lamivudine 1 μM, 6 days
HCV = conditions: read-out: anti-HCV replication activity (IC50); cited from earlier work
HBV [3] = test: HBV attachment and internalization assay in HepaRG cells; assay type: cell-based, hepatitis B virus; conditions: CsA 4 μM
HBV [4] = test: HBV infection of primary human hepatocytes; assay type: cell-based, hepatitis B virus; conditions: CsA 4 μM, HBs in medium or HBV DNA in cells at 12 days
HBV [5] = test: HBV infection of HepG2 cells overexpressing NTCP; assay type: cell-based, hepatitis B virus; conditions: pretreated 2 h, HBV 16 h
HBV [6] = test: HBV infection; assay type: cell-based, hepatitis B virus; conditions: HepaRG
HBV particles = test: Pretreatment of HBV particles with compounds, then infection of HepaRG cells; assay type: cell-based, hepatitis B virus; conditions: 30 min 37°C, compound removed by ultrafiltration, HBs at 12 days

C=CC[C@@H]1/C=C(\C)C[C@H](C)C[C@H](OC)[C@H]2O[C@@](O)(C(=O)C(=O)N3CCCC[C@H]3C(=O)O[C@H](/C(C)=C/[C@@H]3CC[C@@H](O)[C@H](OC)C3)[C@H](C)[C@@H](O)CC1=O)[C@H](C)C[C@@H]2OC [FK506]
Calcineurin (CN)/NF-AT pathway inhibition [1]: can inhibit CN

CO/C1=C\C(C)=C\[C@@H](C)[C@@H](O)[C@@H](C)C/C(C)=C/C=C/[C@H](OC)[C@@H]([C@@H](C)[C@@H](O)[C@H](C)[C@@]2(O)C[C@@H](O)[C@H](C)[C@@H](C(C)C)O2)OC1=O [bafilomycin A1]
HCV entry (HCVpp luciferase activity) (HCVpp): inhibition of HCV entry

Nc1ccn([C@@H]2CS[C@H](CO)O2)c(=O)n1 [lamivudine]
HBV DNA in HepAD38 cells (HBV [2]): drastically decreased HBV DNAs

Alisporivir
IC50 (HCV): 220 nM

PSC833
Calcineurin (CN)/NF-AT pathway inhibition [1]: inactive for CN inhibition

cyclosporin A [CsA]
Attached HBV DNA (attachment assay) (HBV [3]; 4°C 3 h, real-time PCR): slightly reduced the amount of attached HBV DNA, although the effect was not statistically significant
Internalized HBV DNA (internalization assay) (HBV [3]; 37°C 16 h after attachment, trypsinized): significant reduction of HBV DNA
Infection of different HBV genotypes into PHHs (HBV [4]): reduced the infection of HBV genotype A, C, or D
HBs and HBe secretion of HBV-infected HepG2-NTCP cells (HBV [5]): reduced HBs and HBe secretion
HCV entry (HCVpp luciferase activity) (HCVpp): did not affect the entry of HCV
HBc protein, HBV DNA and cccDNA in the cells and HBe in the medium (HBV [6]; CsA 4 μM, 12 days postinfection): significantly decreased
HBs and HBe production, compound added during HBV infection (time of addition) (HBV [6]; CsA 4 μM, Fig. 2E-b): decreased HBs and HBe production
HBs and HBe production, compound added after HBV infection (time of addition) (HBV [6]; CsA 4 μM, Fig. 2E-c): did not have an anti‐HBV effect
Dose-response of HBs (and HBe) secretion (HBV [6]; protocol Fig. 1A, CsA 0.5-4 μM, analogs 0.25-4 μM): decreased HBs and HBe secreted from the infected cells
Calcineurin (CN)/NF-AT pathway inhibition [1]: can inhibit CN
HBV infectivity after preincubation of HBV with compound (HBV particles): did not affect HBV infectivity

heparin
HCV entry (HCVpp luciferase activity) (HCVpp): inhibition of HCV entry
HBV infectivity after preincubation of HBV with compound (HBV particles): antagonizing effect
